In US5136076A, “Process for the preparation of amino acid-derived enatiomeric compounds” (Societe Civile Bioprojet, priority 1987, dated 1992):

How the values were obtained:
[1] = cited from earlier work
enkephalinase [2] = biological target: T1, enkephalinase (Mus musculus, UniProt Q61391); assay: Enkephalinase inhibition in vitro on striatum membranes (Table 1 (a)); format: biochemical
T1 construct: Activity measured on striatum membranes according to Llorens et al., J; from tissue; host or cells: striatum membranes
T1 sequence (Q61391 1-750): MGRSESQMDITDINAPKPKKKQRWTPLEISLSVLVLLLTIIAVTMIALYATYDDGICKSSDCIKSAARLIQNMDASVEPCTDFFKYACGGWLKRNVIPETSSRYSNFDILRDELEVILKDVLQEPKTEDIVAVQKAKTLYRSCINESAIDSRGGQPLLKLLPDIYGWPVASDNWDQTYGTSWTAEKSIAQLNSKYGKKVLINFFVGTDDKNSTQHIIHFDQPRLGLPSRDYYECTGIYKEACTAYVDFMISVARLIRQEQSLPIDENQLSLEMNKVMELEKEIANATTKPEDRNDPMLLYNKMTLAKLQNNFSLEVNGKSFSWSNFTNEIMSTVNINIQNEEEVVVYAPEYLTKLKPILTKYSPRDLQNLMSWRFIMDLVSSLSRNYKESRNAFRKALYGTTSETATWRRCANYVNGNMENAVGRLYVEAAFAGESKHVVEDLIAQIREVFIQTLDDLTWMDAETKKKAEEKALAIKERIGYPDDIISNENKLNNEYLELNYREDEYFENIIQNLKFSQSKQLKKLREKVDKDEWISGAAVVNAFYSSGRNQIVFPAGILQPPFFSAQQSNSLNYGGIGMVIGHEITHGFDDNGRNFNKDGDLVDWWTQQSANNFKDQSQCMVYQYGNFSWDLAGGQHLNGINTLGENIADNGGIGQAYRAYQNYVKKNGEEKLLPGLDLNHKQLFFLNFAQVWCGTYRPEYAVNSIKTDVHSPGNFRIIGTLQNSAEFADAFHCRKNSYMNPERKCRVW
Excerpt: (§1) Dosage of `enkephalinase` activity and angiotensin convertase (ACE) activity with determination of the effect of inhibitors both in vitro and on mouses in vivo: inhibition of the same enzymes and protection of natriuretic auricular factor.
(§2) ENKEPHALINASE AND ACE INHIBITING ACTIVITIES IN IN VITRO AND IN VIVO STRIATUM
(a)Activity measured on striatum membranes according to Llorens et al., J

enkephalinase [3] = assay: Enkephalinase inhibition in vivo in mouse striatum (Table 1 (b)); conditions: 30 mn after i.v. administration
Excerpt: as §1, §2
(b)Activity measured in mouse striatum 30 mn after i.v. administration
according to LlorensCortes et al., Eur. J. Pharmacol., 1985, 119, 183.

[4] = biological target: T2, ACE (angiotensin convertase) (Mus musculus, UniProt P09470); assay: ACE inhibition in vitro on mouse striatum membranes (Table 1 (c)); format: biochemical
T2 construct: Activities measured on mouse striatum membranes in vitro or 30; from tissue; host or cells: mouse striatum (membranes)
T2 sequence (P09470 35-1312): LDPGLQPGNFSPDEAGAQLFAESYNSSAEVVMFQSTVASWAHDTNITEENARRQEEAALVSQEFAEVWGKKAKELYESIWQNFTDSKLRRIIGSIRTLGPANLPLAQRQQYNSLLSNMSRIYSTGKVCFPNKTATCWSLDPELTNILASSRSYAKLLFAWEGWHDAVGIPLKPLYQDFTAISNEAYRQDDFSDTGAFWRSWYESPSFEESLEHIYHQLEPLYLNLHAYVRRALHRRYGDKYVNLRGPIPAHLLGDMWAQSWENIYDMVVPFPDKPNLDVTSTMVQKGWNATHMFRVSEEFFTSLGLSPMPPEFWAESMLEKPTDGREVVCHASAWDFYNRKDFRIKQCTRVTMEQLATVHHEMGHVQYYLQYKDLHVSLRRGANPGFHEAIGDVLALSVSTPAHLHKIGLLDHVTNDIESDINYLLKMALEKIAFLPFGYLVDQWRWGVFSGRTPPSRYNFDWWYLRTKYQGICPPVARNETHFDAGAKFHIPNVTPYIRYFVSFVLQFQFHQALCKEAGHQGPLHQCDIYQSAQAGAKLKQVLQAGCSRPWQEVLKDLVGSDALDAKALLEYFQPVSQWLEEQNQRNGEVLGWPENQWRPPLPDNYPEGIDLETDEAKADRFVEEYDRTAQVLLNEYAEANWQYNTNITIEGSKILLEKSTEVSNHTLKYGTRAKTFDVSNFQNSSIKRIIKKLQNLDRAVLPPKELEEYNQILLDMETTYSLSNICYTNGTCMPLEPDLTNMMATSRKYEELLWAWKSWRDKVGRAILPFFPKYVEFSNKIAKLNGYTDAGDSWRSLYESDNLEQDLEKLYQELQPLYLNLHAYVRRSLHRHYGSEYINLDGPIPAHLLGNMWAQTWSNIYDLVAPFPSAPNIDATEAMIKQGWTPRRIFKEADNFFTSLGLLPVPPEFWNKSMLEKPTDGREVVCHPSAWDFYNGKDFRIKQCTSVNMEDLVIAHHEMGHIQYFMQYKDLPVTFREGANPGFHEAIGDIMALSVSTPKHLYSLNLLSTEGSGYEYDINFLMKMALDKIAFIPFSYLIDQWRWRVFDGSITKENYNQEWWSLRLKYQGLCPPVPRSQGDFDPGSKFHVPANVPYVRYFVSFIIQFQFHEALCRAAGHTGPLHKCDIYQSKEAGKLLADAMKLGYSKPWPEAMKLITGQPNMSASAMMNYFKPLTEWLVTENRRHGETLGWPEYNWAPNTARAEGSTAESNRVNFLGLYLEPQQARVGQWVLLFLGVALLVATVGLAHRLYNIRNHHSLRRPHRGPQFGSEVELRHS
Excerpt: as §1, §2
(§3) (c) and (d)Activities measured on mouse striatum membranes in vitro or 30
(§4) mn after i.v. administration according to Yang and Neff, J. Neurochem, […]

[5] = biological target: T2, ACE (angiotensin convertase); assay: ACE inhibition in vivo, mouse striatum (Table 1 (d)); conditions: for ED50: iv, 0.5 h, read-out: ACE In vivo(d) (DE50, mg/kg)
Excerpt: as §1, §2, §3, §4

renal enkephalinase = assay: Inhibition of linking between Acetorphan and renal enkephalinase after oral administration (Table 2 (a)); format: in vivo, mouse; conditions: kidney, 0.3 mg/kg oral, 90 minutes after administration
Excerpt: as §1
(§5) ENKEPHALINASE INHIBITING ACTIVITIES AND PROTECTION OF NATRIURETIC AURICULAR FACTOR (ANF) IN THE KIDNEY IN VIVO
(a) Inhibition of the linking between […] Acetorphan and renal
enkephalinase measured according to S. de la Baume, M. Tuong, F. Brion, J
C. Schwartz (J.P.E.T. 1988, forthcoming) 90 minutes after oral
administration of compounds 1 or 2 at a dose of 0.3 mg/kg.

[6] = system: natriuretic auricular factor (ANF) in the kidney; assay: Protection of natriuretic auricular factor (ANF) in the kidney in vivo (Table 2 (b)); parameters: species or system mouse; conditions: for Increase of ANF (%): renal 125I ANF 2 min after i.v. administration of 10^6 cpm, compound 0.3 mg/kg orally 90 min before, 0.3 mg/kg
Procedure: as §1, §5
(b) Increase in the renal level of ^125 I ANF, as measured 2 min afte
i.v. administration of 10^6 cpm to mouses having been given compounds
1 or 2, 90 min before (0.3 mg/kg, orally).
Compound 2 (0.3 mg/kg, p.o.) induces in the same test an increase of renal ^125 I ANF of 75±7% after 30 min and […] after 180 min.

mouses [7] = assay: Subacute toxicity, 3 weeks oral; format: in vivo; conditions: 2 g/kg/day oral, mouse, as opposed to control
Procedure: Compound (1) was administered during 3 weeks to mouses at an oral dose of 2 g/kg/day.
Moreover, no signs of tolerance, habituation or other weaning phenomenon were observed on animals submitted to a reversibility test after treatment.

mouses [8] = assay: Analgesic activity, plate jump test at 55° C.; format: in vivo, mouse
Procedure: III. ANALGESIC ACTIVITIES MEASURED ON PLATE JUMP TEST AT 55° C. AFTER ADMINISTRATION TO MOUSES.
(Eddy and Leimbach, J. Pharmacol. Exp. Ther. 1953, 107 385).

dogs = assay: Colic motive activity (motive index) after standard meal; format: in vivo, dog
Excerpt: Motive index (as evaluated with a restraint gauge).
Influence of previous intravenous (i.v.) or oral (p.o.) administration of
compound or the variations of the colic motive index after standard meal

cats [9] = assay: Inhibition of stimulated gastric acid secretion; format: in vivo, cat; conditions: 0.5, 1.5 and 5 mg/kg i.v.; p<0.05
cats [10] = assay: Anti-inflammatory activity in experimental cholecystitis; format: in vivo, cat; conditions: 3 mg/kg i.v.
plasma enkephalinase = assay: Clinical pharmacology: plasma enkephalinase; format: in vivo, human; conditions: 30 mg oral, 1 hr after administration, vs placebo, p<0.001
Procedure: (§6) With healthy volunteers (9 male subjects) enkephalinase and natriuretic auricular factor (ANF) plasma levels as well as diuresis and natruresis are measured after oral administration of either a placebo, or (S) acetorphan.

plasma ANF = assay: Clinical pharmacology: plasma natriuretic auricular factor (ANF); format: in vivo, human; conditions: 30 mg oral, 1 hr after administration, vs placebo, p<0.05
Procedure: as §6

healthy volunteers = assay: Clinical pharmacology: diuresis and natriuresis; format: in vivo, human; conditions: 30 mg oral, between 2 and 8 hours after administration, p<0.05
Procedure: as §6

[11] = system: angiotensin conversion enzyme (ACE); conditions: cited from earlier work
[12] = mouse, mouse striatum, 30 mn after i.v. administration

CC(=O)SCC(Cc1ccccc1)C(=O)NCC(=O)OCc1ccccc1 (racemic) [Acetorphan, (R,S) N-/2-acetylthiomethyl-1-oxo-3-phenyl propyl/-glycine benzyl ester]
dose active intraveinously ([1]; i.v.): around 1 mg/kg

CC(=O)SCC(Cc1ccccc1)C(=O)NCC(=O)OCc1ccccc1 (single isomer, unassigned) [Compound (1)]
IC50 (enkephalinase [2]): 2 nM
Enkephalinase In vivo(b) (DE50, mg/kg) (enkephalinase [3]; 30 min): 0.8 mg/kg
IC50 [4]: 5000 nM
ACE-inhibiting effect ([5]; mouse, in vivo): lack of ACE-inhibiting effect
ED50 [5, 12]: > 20 mg/kg
Inhibition of enkephalinase (%) (renal enkephalinase): 15 ± 6%
Increase of ANF (%) [6]: inactive
Organ weight and pathological examination (mouses [7]): no difference as opposed to control
Reaction time (mouses [8]; 5 mg/kg i.v., 20' before test): 85 ± 5 s
Reaction time (mouses [8]; 30 mg/kg oral, 1 h before test): 80 ± 6 s
Reaction time (mouses [8]; 100 mg/kg oral, 1 h before test): 140 ± 10 s
Motive index, After meal (0/+2 h) (dogs; 1 mg/kg i.v.): 15.2 ± 2.4
Motive index, After meal (+2/10 h) (dogs; 1 mg/kg i.v.): 18.3 ± 3.1
Motive index, Before meal (-2/0) (dogs; 1 mg/kg i.v.): 5.9 ± 0.7
Motive index, After meal (0/+2 h) (dogs; 10 mg/kg p.o.): 17.4 ± 2.7
Motive index, After meal (+2/10 h) (dogs; 10 mg/kg p.o.): 21.5 ± 4.6
Motive index, Before meal (-2/0) (dogs; 10 mg/kg p.o.): 6.4 ± 0.8
colic motricity as an answer to the intake of food (dogs; dogs, postprandial periods): potentiates an increase in colic motricity
stimulation of gastric acid secretion induced by Pentagastrin, 2-deoxyglucose and histamin (cats [9]): significatively decreased
hypersecretion induced by an inflammation of the gall bladder (cats [10]): significatively decreases hypersecretion

CC(=O)SCC(Cc1ccccc1)C(=O)NCC(=O)OCc1ccccc1 (single isomer, unassigned) [Compound (2)]
IC50 (enkephalinase [2]): 3 nM
Enkephalinase In vivo(b) (DE50, mg/kg) (enkephalinase [3]; 30 min): 0.4 mg/kg
IC50 [4]: 100 nM
ACE In vivo(d) (DE50, mg/kg) ([5]; mouse striatum, 30 mn after i.v. administration, 30 min): 10 mg/kg
Inhibition of enkephalinase (%) (renal enkephalinase): 54 ± 6%
increase of renal 125I ANF ([6]; 0.3 mg/kg p.o., after 30 min): 75±7%
Increase of ANF (%) [6]: 33 ± 3%
Reaction time (mouses [8]; 30 mg/kg oral, 1 h before test): 75 ± 5 s
Motive index, After meal (0/+2 h) (dogs; 5 mg/kg p.o.): 16.3 ± 2.5
Motive index, After meal (+2/10 h) (dogs; 5 mg/kg p.o.): 20.1 ± 3.7
Motive index, Before meal (-2/0) (dogs; 5 mg/kg p.o.): 6.2 ± 0.9
stimulation of gastric acid secretion induced by Pentagastrin, 2-deoxyglucose and histamin (cats [9]): significatively decreased
inhibition of plasma enkephalinase (plasma enkephalinase): 62%
increase of plasma ANF (plasma ANF): 50%
increase of diuresis (healthy volunteers): 42%
increase of natriuresis (healthy volunteers): 46%

O=C(O)CNC(=O)[C@@H](CS)Cc1ccccc1 [(S) isomer]
ACE's inhibiting activity ([11]; separate enantiomers of thiorphan): almost exclusively attributable to the (S) isomer

O=C(O)CNC(=O)C(CS)Cc1ccccc1 (racemic) [thiorphan]
inhibition of angiotensin conversion enzyme [11]: less powerful inhibitor of angiotensin conversion enzyme
cardiovascular activity ([1]; at a higher dose): at a higher dose, a cardiovascular activity
active dose systemically, times higher than Acetorphan ([1]; systemically, relative to Acetorphan i.v. (around 1 mg/kg)): about 50 times
analgesic properties ([1]; used intraveinously or intracerebroventricularly): analgesic properties

COC(=O)[C@H](C)NC(=O)[C@@H](CSC(C)=O)Cc1ccccc1 [(6), (S) N-/2-acetylthiomethyl-1-oxo-3-phenylpropyl/-(S)-alanine methyl ester]
IC50 (enkephalinase [2]): 1.2 nM
Enkephalinase In vivo(b) (DE50, mg/kg) (enkephalinase [3]): 0.3 mg/kg
IC50 [4]: 12 nM
ED50 [5, 12]: 4 mg/kg

COC(=O)[C@H](C)NC(=O)[C@H](CSC(C)=O)Cc1ccccc1 [(5), (R) N-/2-acetylthiomethyl-1-oxo-3-phenyl propyl/-(S)-alanine methyl ester]
IC50 (enkephalinase [2]): 3 nM
Enkephalinase In vivo(b) (DE50, mg/kg) (enkephalinase [3]): 0.9 mg/kg
IC50 [4]: 2000 nM
ED50 [5, 12]: > 20 mg/kg

O=C(O)CNC(=O)[C@H](CS)Cc1ccccc1 [(R) isomer]
analgesic activity ([1]; intracerebral, separate enantiomers of thiorphan): principally to the (R) isomer
